Key:
biotinylated‐GST = test: HTRF control with biotinylated-GST (non-specific interference with FRET signal)
Description: (§1) HTRF assays were performed in white 96Well Small VolumeHiBase Polystyrene Microplates (Greiner) with a total working volume of […], as described previously (Milhas et al., 2016). Briefly, compounds were firstly dispensed into the wells at 400 µM for the primary screen or with serial DMSO dilutions for IC50 measurement assays. Primary screening assays have been performed in monoplicate while IC50 measurements were performed in triplicates. All HTRF reagents were purchased from CisBio Bioassays and reconstituted according to the supplier protocols. The plates were spun for 3 min at 500 × g and then incubated at 4°C for 16 h. The HTRF signals were recorded on a POLAR star Omega plate reader (BMG Labtech) with an excitation filter at 337 nm and fluorescence wavelength measurement at 620 and 665 nm, an integration delay of 60 µs and an integration time of 400 µs. Results were analysed with a two‐wavelength signal ratio: [intensity (665 nm)/intensity (620 nm)] × 10^4. Percentage of inhibition was calculated using the following equation: % inhibition = [(compound signal)–(min signal)]/[(max signal)–(min signal)] × 100, where ‘max signal’ is the signal ratio with the compound vehicle alone (DMSO) and ‘min signal’ the signal ratio without protein B. For IC50 measurements, values were normalized and fitted with Prism (GraphPad software) using the following equation: Y = 100/(1+((X/ IC50)ˆHill slope)).
(§2) The search strategy for PDZ2 syntenin inhibitors was based on the PDZ targeted library developed from Enamine compound collection. The PDZ targeted library was developed to cover virtually all PDZ domains. Consequently, to create the syntenin PDZ2 focused library we used two independent paths: docking of the PDZ targeted library against structures of syntenin PDZ2 available in Protein Data Bank and a random selection from the PDZ targeted library. The docking has produced 21 virtual hits, which were added to 118 randomly selected compounds (10% of the pan PDZ library). The resultant set of 139 compounds, syntenin PDZ library was subjected to experimental validation. The primary screen was performed at 400µM using a previously validated Homogeneous Time Resolved Fluorescence (HTRF) assay (Milhas et al., 2016). HTRF is based on Fluorescence Resonance Energy Transfer (FRET) between two fluorescent reagents. In the present case, Anti‐GST‐Terbium antibody and streptavidin‐bound Dynamic2 were used as donor and acceptor respectively. Interactions between GST PDZ‐fusion proteins and biotinylated peptides containing PDZ binding motifs were challenged with the potential inhibitors. In parallel, control experiments were performed with a biotinylated‐GST to verify that compounds were not interfering with the FRET signal in a non‐specific manner. To identify inhibitors of syntenin PDZ interactions, we tested for the effect of the 139 compounds on syntenin‐SDC2 and syntenin‐Frizzled7 complexes (Figure 1a; Table S1). When the HTRF signal dropped below 0.9, inhibition was considered as effective. […] Noteworthy, these compounds had no effect on other PDZ complexes like GRASP55‐JAM‐B or GRASP55‐JAM‐C and Erbin‐Erbb2 or Erbin‐P0071 (Figure 1c).

Erbin‐Erbb2 complex = test system: T1, Erbin‐Erbb2 complex; test: HTRF assay, Erbin-ERBB2 interaction; assay type: biochemical, human; details: 400µM compound; Figure 1c
T1 construct: human Erbin PDZ domain; made in house; host or cells: E. coli BL21 (DE3)
Description: as §1, §2

[1] = test system: MCF‐7 cells (exosomal markers); test: Western blot of exosomal fractions (exosome cargo); assay type: cell-based; details: CAY10594 10 µM, 16 h
Description: For comparative analyses, exosome‐enriched fractions were collected from equivalent amounts of culture medium, conditioned by equivalent amounts of cells. MCF‐7 cells were treated with indicated compounds or with DMSO 0.2% as control, in medium containing exosome‐depleted FCS (10%). After 16 h, cell media were collected and exosomes were isolated by three sequential centrifugation steps at 4 °C: 10 min at 500 × g, to remove cells; 30 min at 10,000 × g, to remove cell debris; and 1h30min at 100,000 × g, to pellet exosomes (exosome‐enriched fraction), followed by one wash with 1400 µl of PBS1X (100,000 × g, 1 h), to remove soluble serum and secreted proteins. Exosomal pellets were then re‐suspended in 100 µl of PBS1X. The lysates from corresponding cultures were cleared by centrifugation at 1500 rpm for 5 min and then resuspended in lysis buffer (TrisHCL pH 7.4 30 mM, NaCl 150 mM, 1% NP40 (IGEPAL), 1 µg/ml aprotinin, 1 µg/ml leupeptin). Although only little variations were observed from sample to sample, exosomal amounts loaded for the western blot were normalized according to the number of parent cells from where exosomes were secreted.
The proteins were heat‐denaturated in Laemmli sample buffer, fractionated in 12.5% or 15% gels by SDS–PAGE and electro‐transferred to nitrocellulose membrane. Membranes were stained with Ponceau red and immunoblotted with the indicated primary antibodies for: CD9 (1/5000), CD63 (1/5000), CD81 (1/5000) and ADAM10 (1/1000) antibodies provided by E. Rubinstein (Charrin et al., 2001) (Université Paris‐Sud UMRS_935, Villejuif); syntenin (Homemade (Kashyap et al., 2015); 1/3000), Tubulin (Sigma‐Aldrich; 1/10,000), ALIX (Homemade (Baietti et al., 2012); 1/500), HSP70 (Santa Cruz Biotechnology; 1/500), Flotillin‐1 (BD Biosciences; 1/1000), EGFR (Cell Signaling; 1/1000), EpCAM (Santa Cruz Biotechnology; 1/200), Fibronectin (BD Biosciences; 1/5000), Src (Cell signaling; 1/1000), TSP1 (Lab Vision; 1/100), SDC1 intracellular domain (Homemade (Baietti et al., 2012); 1/1000), SDC4 intracellular domain (Abnova; 1/2000), and HRP‐conjugated secondary antibodies (Mouse or Rabbit, Thermofisher scientific; 1/10,000). Signals were visualized using Amersham ECL Prime Western Blotting Detection Reagent (GE Healthcare).

SMILES | GST-biot (signal ratio) (biotinylated‐GST; 400µM compound, Figure 1c) | effect on control (biotinylated‐GST) FRET signals (biotinylated‐GST; HTRF primary screen, 400µM) | HTRF ASSAY GST-biot (HTRF signal ratio, control) (biotinylated‐GST; primary screen, 400 µM compound, Table S1) | GST-Erbin ERBB2 (signal ratio) (Erbin‐Erbb2 complex) | exosomal ADAM10 signal ([1]; SyntOFF 100 µM) | exosomal CD81 ([1]; SyntOFF 100 µM) | exosomal EGFR signal ([1]; SyntOFF 100 µM) | exosomal TSP1 signal ([1]; SyntOFF 100 µM) | exosomal fibronectin signal ([1]; SyntOFF 100 µM) | incorporation of EpCAM into exosomes ([1]; SyntOFF 100 µM) | incorporation of c‐Src into exosomes ([1]; SyntOFF 100 µM) | amount of exosomal ALIX ([1]; cSyntOFF, C58, SyntOFF 100 µM) | amount of exosomal SDC4 C‐terminal fragment (CTF) ([1]; cSyntOFF, C58, SyntOFF 100 µM) | amount of exosomal syntenin ([1]; cSyntOFF, C58, SyntOFF 100 µM)
CC(C)[C@H](NC(=O)CSc1ccc(Cl)cc1)C(=O)O [Compound C58] | 0.92 | no significant effect | 1.01 | 1.01 |  |  |  |  |  |  |  |  |  | 
CC(C)[C@H](NC(=O)CCSc1ccc(Cl)cc1)C(=O)O [SyntOFF, (S)‐2‐(3‐(4‐chlorophenylthio)propanamido)‐3‐methylbutanoic acid] |  |  |  |  | unaffected | that was not the case | unaffected | unaffected | unaffected | markedly decrease | markedly decrease | significantly decreased | significantly decreased | significantly decreased

— article PMC7737769, “Pharmacological inhibition of syntenin PDZ2 domain impairs breast cancer cell activities and exosome loading with syndecan and EpCAM cargo” (Journal of Extracellular Vesicles, 2020)
